Test results: ChEMBL document CHEMBL1201862, “PubChem BioAssay data set” (2004)
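Protocol summary: plate cells (96-well), add compound at 5 concentrations, incubate 48 h, interpolate endpoints linearly. GI50: concentration for 50% inhibition of growth.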 Calls of active or inactive are those of the source. Rule as the data show it: active = GI50 up to about 1.1 µM and inactive = higher.

What was measured:
Test in all cases: inhibition of tumour cell growth, NCI panel, 48 h
SK-MEL-2 = system: SK-MEL-2
SF-295 = system: SF-295
OVCAR-4 = system: OVCAR-4
HL-60 = system: HL-60
SK-MEL-5 = system: SK-MEL-5
NCI-H226 = system: NCI-H226
CCRF-CEM = system: CCRF-CEM
HCT-15 = system: HCT-15
NCI-H460 = system: NCI-H460
A549 = system: A549
NCI-H23 = system: NCI-H23
RPMI-8226 = system: RPMI-8226
HCT-116 = system: HCT-116
UACC-257 = system: UACC-257
KM-20L2 = system: KM-20L2
DMS-114 = system: DMS-114
SR = system: SR
NCI/ADR-RES = system: NCI/ADR-RES
T47D = system: T47D
MDA-MB-231 = system: MDA-MB-231

SMILES	GI50 (SK-MEL-2)	GI50 (SF-295)	GI50 (OVCAR-4)	GI50 (HL-60)	GI50 (SK-MEL-5)	GI50 (NCI-H226)	GI50 (CCRF-CEM)	GI50 (HCT-15) [µM]	GI50 (NCI-H460)	GI50 (A549)	GI50 (NCI-H23)	GI50 (RPMI-8226)	GI50 (HCT-116)	GI50 (UACC-257)	GI50 (KM-20L2)	GI50 (DMS-114)	GI50 (SR)	GI50 (NCI/ADR-RES)	GI50 (T47D)	GI50 (MDA-MB-231)
CCCCN(CC)CC(C(C)=O)c1c(O)c2ccccc2oc1=O (stereo not drawn)	> 100 µM (inactive)	> 100 µM (inactive)	> 100 µM (inactive)	> 100 µM (inactive)	> 100 µM (inactive)	> 100 µM (inactive)	> 100 µM (inactive)	> 100	> 100 µM (inactive)	> 100 µM (inactive)	15.4 µM (inactive)	> 100 µM (inactive)	> 100 µM (inactive)	> 100 µM (inactive)	> 100 µM (inactive)	> 100 µM (inactive)	> 100 µM (inactive)			
NC(=O)/C(=N\NC(=O)C[n+]1ccccc1)C1NC(=O)NC1=O (stereo not drawn)	> 100 µM (inactive)	> 100 µM (inactive)	> 100 µM (inactive)	> 100 µM (inactive)	> 100 µM (inactive)	> 100 µM (inactive)	> 100 µM (inactive)	> 100	> 100 µM (inactive)	> 100 µM (inactive)	> 100 µM (inactive)	> 100 µM (inactive)	> 100 µM (inactive)	> 100 µM (inactive)	> 100 µM (inactive)	> 100 µM (inactive)	> 100 µM (inactive)			
Cc1ccccc1/N=N/c1c(-c2ccccc2)nn(C(=O)CC(=O)Nc2cccc(Cl)c2)c1-c1ccccc1	12.7 µM (inactive)	22 µM (inactive)	22.6 µM (inactive)	17.3 µM (inactive)	15.8 µM (inactive)	16 µM (inactive)	15.8 µM (inactive)	16.9	19.6 µM (inactive)	> 10 µM (inactive)	20.1 µM (inactive)	12.1 µM (inactive)	13.4 µM (inactive)	0.247 µM (active)	21.5 µM (inactive)	14.9 µM (inactive)	9.1 µM (inactive)			
Cc1ccc(S(=O)(=O)n2c(-c3ccccc3)c(-c3ccccc3)c3ccccc32)cc1	> 100 µM (inactive)	97.5 µM (inactive)	> 100 µM (inactive)	> 100 µM (inactive)	20.3 µM (inactive)	> 100 µM (inactive)	> 100 µM (inactive)	> 100	> 100 µM (inactive)	> 100 µM (inactive)	17.7 µM (inactive)	23.1 µM (inactive)	> 100 µM (inactive)	> 100 µM (inactive)	> 100 µM (inactive)	20.5 µM (inactive)	7.31 µM (inactive)			
O=C(Nc1ccc(Cl)cc1)c1cccc([N+](=O)[O-])c1O	2.02 µM (inactive)	3.29 µM (inactive)	4.07 µM (inactive)	2.07 µM (inactive)	1.75 µM (inactive)	2.33 µM (inactive)	2.06 µM (inactive)	4.84	2.1 µM (inactive)	3.65 µM (inactive)	2.43 µM (inactive)	1.6 µM (inactive)	3.94 µM (inactive)	2.24 µM (inactive)	4.43 µM (inactive)	3.1 µM (inactive)	4.76 µM (inactive)			
COc1cc2c(cc1OC)[C@H]1C(COC(=O)c3ccccc3)CS/C(=N/c3ccccc3)N1CC2 (stereo partly drawn)	3.21 µM (inactive)	> 100 µM (inactive)	5.15 µM (inactive)	5.31 µM (inactive)	> 100 µM (inactive)	36.3 µM (inactive)	> 100 µM (inactive)	> 100	91.8 µM (inactive)	82.6 µM (inactive)	5.9 µM (inactive)	4.33 µM (inactive)	5.68 µM (inactive)	> 100 µM (inactive)	76 µM (inactive)	17.1 µM (inactive)	5.71 µM (inactive)			
COC(=O)C(CCCCCCCC(C(=O)OC)C1=Nc2nnc(N)n2C1=O)C1=Nc2nnc(N)n2C1=O (stereo not drawn)	> 100 µM (inactive)	61.9 µM (inactive)	> 100 µM (inactive)	> 100 µM (inactive)	> 100 µM (inactive)	> 100 µM (inactive)	> 100 µM (inactive)	> 100	> 100 µM (inactive)	> 100 µM (inactive)	> 100 µM (inactive)	4.07 µM (inactive)	> 100 µM (inactive)	> 100 µM (inactive)	> 100 µM (inactive)	> 100 µM (inactive)	> 100 µM (inactive)			
CCOC(=O)C(C(=O)c1ccccc1-c1ccccc1C(=O)O)=P(c1ccccc1)(c1ccccc1)c1ccccc1	20.6 µM (inactive)	31.9 µM (inactive)	18 µM (inactive)	19.8 µM (inactive)	15.5 µM (inactive)	24.4 µM (inactive)	20.7 µM (inactive)	25.7	16.5 µM (inactive)	17.8 µM (inactive)	20 µM (inactive)	13.9 µM (inactive)	18.7 µM (inactive)	25.5 µM (inactive)	21 µM (inactive)	20.1 µM (inactive)	23.6 µM (inactive)			
O=C(O)CCCc1ccc(N(CCCl)CCCl)cc1 [CHLORAMBUCIL]	155 µM (inactive)	39.2 µM (inactive)	136 µM (inactive)	8.22 µM (inactive)	88.5 µM (inactive)	95.7 µM (inactive)	6.31 µM (inactive)	92.7	14.7 µM (inactive)	61.7 µM (inactive)	26.6 µM (inactive)	76 µM (inactive)	106 µM (inactive)	93.5 µM (inactive)	132 µM (inactive)	45.1 µM (inactive)	5.98 µM (inactive)	56.9 µM (inactive)	55 µM (inactive)	156 µM (inactive)
COc1ccccc1/C=N/C12CC3CC(CC(C3)C1)C2	> 100 µM (inactive)	> 100 µM (inactive)	> 100 µM (inactive)	73.6 µM (inactive)	81.8 µM (inactive)	> 10 µM (inactive)	> 100 µM (inactive)	91.8	> 100 µM (inactive)	> 100 µM (inactive)	> 100 µM (inactive)	> 100 µM (inactive)	> 10 µM (inactive)	> 100 µM (inactive)	> 100 µM (inactive)	> 10 µM (inactive)	> 100 µM (inactive)			
